Source: ChEMBL document CHEMBL6092203, “Discovery of Novel PROTAC-Based HPK1 Degraders with High Potency and Selectivity for Cancer Immunotherapy” (J Med Chem, 2024)

Assays:
[1] = Apparent volume of distribution in mouse at 2 mg/kg, iv measured upto 24 hrs by LC-MS analysis; assay type: ADME, organism-based; settings: in vivo
[2] = Half-life in mouse at 2 mg/kg, iv measured upto 24 hrs by LC-MS analysis; assay type: ADME, organism-based; settings: in vivo
[3] = biological target: T1, Protein cereblon/Mitogen-activated protein kinase kinase kinase kinase 1 (Homo sapiens, UniProt Q92918+Q96SW2); test: PROTAC activity at CRBN/HPK1 in human Jurkat cells incubated for 24 hrs by Western blotting analysis; assay type: cell-based
Target sequence in this assay (Q92918 whole entry): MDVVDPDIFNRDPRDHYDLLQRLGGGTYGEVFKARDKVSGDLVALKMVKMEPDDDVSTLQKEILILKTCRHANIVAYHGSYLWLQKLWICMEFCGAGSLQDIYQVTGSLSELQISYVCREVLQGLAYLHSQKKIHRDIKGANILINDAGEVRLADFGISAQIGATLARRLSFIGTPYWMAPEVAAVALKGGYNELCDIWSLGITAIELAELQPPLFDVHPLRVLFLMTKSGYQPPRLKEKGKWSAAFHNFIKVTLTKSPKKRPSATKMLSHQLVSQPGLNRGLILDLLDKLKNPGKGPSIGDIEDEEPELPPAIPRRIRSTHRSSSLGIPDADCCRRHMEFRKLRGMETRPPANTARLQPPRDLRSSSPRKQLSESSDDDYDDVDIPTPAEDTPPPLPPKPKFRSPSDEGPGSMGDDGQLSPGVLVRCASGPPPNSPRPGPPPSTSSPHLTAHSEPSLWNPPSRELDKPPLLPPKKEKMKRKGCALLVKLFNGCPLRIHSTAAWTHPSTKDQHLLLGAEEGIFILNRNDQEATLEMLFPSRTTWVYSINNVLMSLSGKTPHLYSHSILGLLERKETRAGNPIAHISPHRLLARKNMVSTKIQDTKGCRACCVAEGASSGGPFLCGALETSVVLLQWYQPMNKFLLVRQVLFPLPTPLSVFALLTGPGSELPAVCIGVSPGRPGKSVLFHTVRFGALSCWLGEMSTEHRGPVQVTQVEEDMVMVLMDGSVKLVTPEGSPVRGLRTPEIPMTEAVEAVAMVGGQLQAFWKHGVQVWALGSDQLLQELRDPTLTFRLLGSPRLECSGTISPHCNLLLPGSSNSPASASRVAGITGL
Target sequence in this assay (Q96SW2 whole entry): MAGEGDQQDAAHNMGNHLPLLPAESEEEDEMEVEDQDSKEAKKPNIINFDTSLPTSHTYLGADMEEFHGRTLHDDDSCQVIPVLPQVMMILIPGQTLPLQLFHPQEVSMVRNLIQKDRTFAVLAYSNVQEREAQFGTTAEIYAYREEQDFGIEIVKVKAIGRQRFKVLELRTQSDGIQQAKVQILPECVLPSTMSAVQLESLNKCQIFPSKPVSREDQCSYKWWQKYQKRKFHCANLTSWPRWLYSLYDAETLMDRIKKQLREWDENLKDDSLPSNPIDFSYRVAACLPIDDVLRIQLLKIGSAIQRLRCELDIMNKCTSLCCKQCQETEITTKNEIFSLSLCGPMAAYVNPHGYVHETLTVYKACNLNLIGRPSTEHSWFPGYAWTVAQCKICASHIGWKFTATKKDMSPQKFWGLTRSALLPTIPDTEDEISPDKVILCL

[4] = Cmax in mouse at 10 mg/kg, po measured upto 24 hrs by LC-MS analysis; assay type: ADME, organism-based; settings: in vivo
[5] = Half-life in mouse at 10 mg/kg measured upto 24 hrs by LC-MS analysis; assay type: ADME, organism-based; settings: in vivo
[6] = Clearance in mouse at 2 mg/kg, iv measured upto 24 hrs by LC-MS analysis; assay type: ADME, organism-based; settings: in vivo
[7] = AUC in mouse at 10 mg/kg, po measured upto 24 hrs by LC-MS analysis; assay type: ADME, organism-based; settings: in vivo
[8] = AUC in mouse at 2 mg/kg, iv measured upto 24 hrs by LC-MS analysis; assay type: ADME, organism-based; settings: in vivo
[9] = biological target: T1, Protein cereblon/Mitogen-activated protein kinase kinase kinase kinase 1; test: PROTAC activity at CRBN/HPK1 in human Jurkat cells assessed as maximum degradation incubated for 24 hrs by Western blotting analysis; assay type: cell-based
Target sequence in this assay (Q92918 whole entry, looked up): as the sequence (Q92918 whole entry) above
Target sequence in this assay (Q96SW2 whole entry, looked up): as the sequence (Q96SW2 whole entry) above

[10] = Oral bioavailability in mouse at 10 mg/kg measured upto 24 hrs by LC-MS analysis; assay type: ADME, organism-based; settings: in vivo
[11] = biological target: T2, Mitogen-activated protein kinase kinase kinase kinase 1 (Homo sapiens, UniProt Q92918); test: Induction of HPK1 (unknown origin) degradation
T2 sequence (Q92918 whole entry): as the sequence (Q92918 whole entry) above

[12] = test system: MC-38; test: Antitumor activity against mouse MC38 cells implanted in C57BL/6J mouse assessed as reduction in tumor weight at 10 mg/kg, po BID administered for 3 to 4 weeks (reference value: 1.79 +/- 0.24 g); assay type: functional; settings: time 3-4 weeks
[13] = test system: MC-38; test: Synergistic antitumor activity against mouse MC38 cells implanted in C57BL/6J mouse assessed as reduction in tumor weight at 10 mg/kg, po bid administered for 3 to 4 weeks in presence of 5 mg/kg anti-PD1 and measured twice a week (reference value: 1.79 +/- 0.24 g); assay type: functional; settings: time 3-4 weeks
[14] = test system: MC-38; test: Synergistic antitumor activity against mouse MC38 cells implanted in C57BL/6J mouse assessed as tumor growth inhibition at 1 mg/kg, po bid measured after 4 weeks in presence of 5 mg/kg anti-PD1 and measured twice a week; assay type: functional; settings: MC-38, 672 h, read-out: TGI
[15] = test system: MC-38; test: Synergistic antitumor activity against mouse MC38 cells implanted in C57BL/6J mouse assessed as tumor weight inhibition rate at 10 mg/kg, po bid measured after 4 weeks in presence of 5 mg/kg anti-PD1 and measured twice a week; assay type: functional; set-up: scale not given: the % may be the effect or the level left
[16] = test system: MC-38; test: Synergistic antitumor activity against mouse MC38 cells implanted in C57BL/6J mouse assessed as reduction in tumor volume at 1 mg/kg, po bid administered for 3 to 4 weeks in presence of 5 mg/kg anti-PD1 and measured twice a week (reference value: 1549.22 +/- 217.92 mm3); assay type: functional; settings: time 3-4 weeks
[17] = test system: MC-38; test: Antitumor activity against mouse MC38 cells implanted in C57BL/6J mouse assessed as reduction in tumor volume at 1 mg/kg, po BID administered for 3 to 4 weeks (reference value: 1549.22 +/- 217.92 mm3); assay type: functional; settings: time 3-4 weeks
[18] = test system: MC-38; test: Synergistic antitumor activity against mouse MC38 cells implanted in C57BL/6J mouse assessed as reduction in tumor weight at 1 mg/kg, po bid administered for 3 to 4 weeks in presence of 5 mg/kg anti-PD1 and measured twice a week (reference value: 1.79 +/- 0.24 g); assay type: functional; settings: time 3-4 weeks
[19] = test system: MC-38; test: Synergistic antitumor activity against mouse MC38 cells implanted in C57BL/6J mouse assessed as reduction in tumor volume at 10 mg/kg, po bid administered for 3 to 4 weeks in presence of 5 mg/kg anti-PD1 and measured twice a week (reference value: 1549.22 +/- 217.92 mm3); assay type: functional; settings: time 3-4 weeks
[20] = test system: MC-38; test: Antitumor activity against mouse MC38 cells implanted in C57BL/6J mouse assessed as tumor growth inhibition at 10 mg/kg, po BID measured after 4 weeks; assay type: functional; settings: MC-38, 672 h, read-out: TGI
[21] = test system: MC-38; test: Antitumor activity against mouse MC38 cells implanted in C57BL/6J mouse assessed as reduction in tumor weight at 1 mg/kg, po BID administered for 3 to 4 weeks (reference value: 1.79 +/- 0.24 g); assay type: functional; settings: time 3-4 weeks
[22] = test system: MC-38; test: Antitumor activity against mouse MC38 cells implanted in C57BL/6J mouse assessed as reduction in tumor volume at 10 mg/kg, po BID administered for 3 to 4 weeks (reference value: 1549.22 +/- 217.92 mm3); assay type: functional; settings: time 3-4 weeks
[23] = test system: MC-38; test: Synergistic antitumor activity against mouse MC38 cells implanted in C57BL/6J mouse assessed as tumor growth inhibition at 10 mg/kg, po bid measured after 4 weeks in presence of 5 mg/kg anti-PD1 and measured twice a week; assay type: functional; settings: MC-38, 672 h, read-out: TGI
[24] = test system: MC-38; test: Synergistic antitumor activity against mouse MC38 cells implanted in C57BL/6J mouse assessed as tumor weight inhibition rate at 1 mg/kg, po bid measured after 4 weeks in presence of 5 mg/kg anti-PD1 and measured twice a week; assay type: functional; set-up: scale not given: the % may be the effect or the level left
[25] = test system: MC-38; test: Antitumor activity against mouse MC38 cells implanted in C57BL/6J mouse assessed as tumor weight inhibition rate at 1 mg/kg, po BID measured after 4 weeks; assay type: functional; set-up: scale not given: the % may be the effect or the level left
[26] = test system: MC-38; test: Antitumor activity against mouse MC38 cells implanted in C57BL/6J mouse assessed as tumor weight inhibition rate at 10 mg/kg, po BID measured after 4 weeks; assay type: functional; set-up: scale not given: the % may be the effect or the level left
[27] = test system: MC-38; test: Antitumor activity against mouse MC38 cells implanted in C57BL/6J mouse assessed as tumor growth inhibition at 1 mg/kg, po BID measured after 4 weeks; assay type: functional; settings: MC-38, 672 h, read-out: TGI
[28] = biological target: T2, Mitogen-activated protein kinase kinase kinase kinase 1; test: Inhibition of HPK1 (unknown origin)
[29] = biological target: T3, Mitogen-activated protein kinase kinase kinase kinase 3 (Homo sapiens, UniProt Q8IVH8); test: Inhibition of GLK (unknown origin)
T3 sequence (Q8IVH8 whole entry): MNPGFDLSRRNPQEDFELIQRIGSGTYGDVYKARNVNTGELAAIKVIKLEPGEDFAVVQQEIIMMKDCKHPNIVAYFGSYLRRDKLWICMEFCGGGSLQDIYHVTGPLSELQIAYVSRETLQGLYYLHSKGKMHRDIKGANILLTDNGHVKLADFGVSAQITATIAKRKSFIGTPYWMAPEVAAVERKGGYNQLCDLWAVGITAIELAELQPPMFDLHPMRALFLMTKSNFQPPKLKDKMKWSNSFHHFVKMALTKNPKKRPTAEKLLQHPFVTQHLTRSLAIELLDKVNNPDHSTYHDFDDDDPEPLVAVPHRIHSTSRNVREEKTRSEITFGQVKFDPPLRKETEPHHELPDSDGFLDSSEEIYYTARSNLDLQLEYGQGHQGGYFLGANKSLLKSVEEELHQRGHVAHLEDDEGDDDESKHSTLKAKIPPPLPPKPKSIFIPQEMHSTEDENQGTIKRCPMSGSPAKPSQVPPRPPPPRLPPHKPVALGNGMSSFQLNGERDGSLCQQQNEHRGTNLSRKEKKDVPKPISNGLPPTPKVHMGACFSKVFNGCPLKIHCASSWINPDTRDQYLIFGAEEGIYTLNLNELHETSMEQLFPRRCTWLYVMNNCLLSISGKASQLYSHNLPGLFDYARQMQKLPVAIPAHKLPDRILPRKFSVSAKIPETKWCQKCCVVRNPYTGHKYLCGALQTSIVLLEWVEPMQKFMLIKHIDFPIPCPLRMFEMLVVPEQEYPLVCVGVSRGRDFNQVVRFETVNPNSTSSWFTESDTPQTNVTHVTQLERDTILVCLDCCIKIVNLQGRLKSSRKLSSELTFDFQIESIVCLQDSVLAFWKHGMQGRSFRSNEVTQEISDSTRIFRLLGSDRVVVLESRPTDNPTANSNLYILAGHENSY

Compound | Vz [1] [L/kg] | half-life [2] [h] | DC50 [3] [nM] | Cmax [4] [ng/mL] | clearance [6] [mL/min/kg] | AUC at 24 h [7] [ng·h/mL] | AUC at 24 h [8] [ng·h/mL] | Emax [9] [%] | bioavailability [10] [%] | other results
O=C1CCN(c2cc(C(=O)N3CCC(CC4CCN(c5ccc(-c6cnc7[nH]cc(-c8cnn(CCF)c8)c7n6)cn5)CC4)CC3)ccc2Cl)C(=O)N1 | 0.917 | 2.35 | 5.3 | 4680 | 4.5 | 9200 | 7400 | 78 | 25.1 | half-life [5]: 3.18 h
CN1CCC(n2cc(-c3c[nH]c4ncc(-c5ccc(N6CCC(CC7CCN(C(=O)c8ccc(Cl)c(N9CCC(=O)NC9=O)c8)CC7)CC6)nc5)nc34)cn2)CC1 | – | – | 21.4 | – | – | – | – | – | – | DC50 [11]: 1.8 nM
CCN1CCC(n2cc(-c3c[nH]c4ncc(-c5ccc(N6CCC(CC7CCN(C(=O)c8ccc(Cl)c(N9CCC(=O)NC9=O)c8)CC7)CC6)nc5)nc34)cn2)CC1 | 1.03 | 4.63 | 1.2 | 81.6 | 27.5 | 295 | 874 | 93 | 6.67 | –
Cn1cc(-c2c[nH]c3ncc(-c4ccc(N5CCC(CC6CCN(C(=O)c7ccc(Cl)c(N8CCC(=O)NC8=O)c7)CC6)CC5)nc4)nc23)cn1 | 0.701 | 0.98 | 9.3 | 840 | 8.27 | 2210 | 4030 | 93 | 17.7 | half-life [5]: 3.35 h; Emax ([9]; tested as the 2H-labelled form): 89%
O=C1CCN(c2cc(C(=O)N3CCC(CC4CCN(c5ccc(-c6cnc7[nH]cc(-c8cnn(C(F)F)c8)c7n6)cn5)CC4)CC3)ccc2Cl)C(=O)N1 | – | – | 23.9 | – | – | – | – | 67 | – | –
CCC(CC)n1cc(Oc2nc(-c3cc(C)c(C(=O)NCCN4CC[C@@H](F)C4)c(C)c3)cnc2N)cn1 | – | – | – | – | – | – | – | – | – | Activity [12]: 2.27 g; Activity [13]: 0.57 g; inhibition in vivo at 1 mg/kg [14]: 76.3%; Activity [15]: 68.3%; Activity [16]: 367.21 mm3; Activity [17]: 1349.36 mm3; Activity [18]: 0.48 g; Activity [19]: 423.84 mm3; inhibition in vivo at 10 mg/kg [20]: -22.4%; Activity [21]: 2.04 g; Activity [22]: 1896.55 mm3; inhibition in vivo at 10 mg/kg [23]: 72.6%; Activity [24]: 73.27%; Activity [25]: -13.75%; Activity [26]: -26.45%; inhibition in vivo at 1 mg/kg [27]: 12.9%
CCN1CCC(n2cc(-c3c[nH]c4ncc(-c5cnc(OCC6CCOCC6)c(F)c5)nc34)cn2)CC1 | – | – | – | – | – | – | – | – | – | IC50 [28]: 2.67 nM; IC50 [29]: 63.6 nM
CCN1CCC(n2cc(-c3c[nH]c4ncc(-c5ccc(N6CCC(CC7CCCN(C(=O)c8ccc(Cl)c(N9CCC(=O)NC9=O)c8)CC7)CC6)nc5)nc34)cn2)CC1 (stereo not drawn) | – | – | 385 | – | – | – | – | 56 | – | –
CCn1cc(-c2c[nH]c3ncc(-c4ccc(N5CCC(CC6CCN(C(=O)c7ccc(Cl)c(N8CCC(=O)NC8=O)c7)CC6)CC5)nc4)nc23)cn1 | – | – | 29.2 | – | – | – | – | 87 | – | –
O=C1CCN(c2cc(C(=O)N3CCC(CC4CCN(c5ccc(-c6cnc7[nH]cc(-c8cnn([C@@H]9CCOC9)c8)c7n6)cn5)CC4)CC3)ccc2Cl)C(=O)N1 | – | – | 83 | – | – | – | – | 84 | – | –
